These results are taken from patent US8158628B2, “Sulfonylated 1,2,3,4-tetrahydropyrrolo[1,2-a]pyrazine compounds and their use as pharmaceuticals” (Gruenenthal GmbH, priority 2009, dated 2012).

This assay concerns the target T1, B1R of the rat (Rattus norvegicus, UniProt P97583).
T1 construct: expressed in transfected cells; host or cells: CHO K1 cells (Chinese hamster ovary), stably transfected
T1 sequence (P97583 1-337): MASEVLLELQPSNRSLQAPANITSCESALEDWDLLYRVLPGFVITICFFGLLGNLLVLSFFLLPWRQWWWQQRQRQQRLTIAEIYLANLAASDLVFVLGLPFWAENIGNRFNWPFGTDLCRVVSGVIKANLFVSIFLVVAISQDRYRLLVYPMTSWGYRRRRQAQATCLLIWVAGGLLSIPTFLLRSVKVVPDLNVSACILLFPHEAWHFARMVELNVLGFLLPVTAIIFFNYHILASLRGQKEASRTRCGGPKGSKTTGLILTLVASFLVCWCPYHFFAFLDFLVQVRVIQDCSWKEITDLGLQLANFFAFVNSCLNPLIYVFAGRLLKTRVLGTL
As to the kind of experiment: FLIPR Ca2+ functional assay, B1R antagonism, rat B1R in CHO K1 cells. It is filed as cell-based. The following applies: test substance 10 μM; rB1R CHO K1 cells; agonist Des-Arg9 bradykinin at EC80; % of maximum achievable inhibition. As for the experimental part: The agonistic or antagonistic action of substances on the bradykinin 1 receptor (B1R) of the human and rat species can be quantified with ectopically expressing cell lines (CHO K1 cells) and with the aid of a Ca^2+-sensitive dye (Fluo-4) using a fluorescent imaging plate reader (FLIPR). The value in % activation is based on the Ca^2+ signal after addition of Lys-Des-Arg^9 bradykinin (0.5 nM) or Des-Arg^9 bradykinin (100 nM). Antagonists lead to a suppression of the Ca^2+ influx following administration of the agonist. The % inhibition in comparison with the maximum achievable inhibition is indicated.
1. Functional Investigation on the Bradykinin 1 Receptor (B1R) The agonistic or antagonistic action of substances can be determined on the bradykinin 1 receptor (B1R) of the human and rat species with the following assay. According to this assay, the Ca^2+ inflow through the channel is quantified with the aid of a Ca^2+-sensitive dye (Fluo-4 type, Molecular Probes Europe BV, Leiden, Netherlands) in a fluorescent imaging plate reader (FLIPR, Molecular Devices, Sunnyvale, USA). 2. Method: Chinese hamster ovary cells (CHO K1 cells) which are stably transfected with the human B1R gene (hB1R cells) or the B1R gene of the rat (rB1R cells) are used. For functional investigations these cells are plated-out onto black 96-well plates with a clear base (BD Biosciences, Heidelberg, Germany or Greiner, Frickenhausen, Germany) in a density of 20,000-35,000 cells/well. Overnight the cells are incubated at 37° C. and 5% CO2 in culture medium (hB1R cells: Ham's Nutrient Mixture F12, Gibco Invitrogen GmbH, Karlsruhe, Germany or DMEM, Sigma-Aldrich, Taufkirchen, Germany; rB1R cells: D-MEM/F12, Gibco Invitrogen, Karlsruhe, Germany) with 10 vol. % FBS (foetal bovine serum, Gibco Invitrogen GmbH, Karlsruhe, Germany or PAN Biotech GmbH, Aidenbach, Germany).
On the following day the cells are loaded with 2.13 μM Fluo-4 (Molecular Probes Europe BV, Leiden, Netherlands) in HBSS buffer (Hank's buffered saline solution, Gibco Invitrogen GmbH, Karlsruhe, Germany) with 2.5 mM probenecid (Sigma-Aldrich, Taufkirchen, Germany) and 10 mM HEPES (Sigma-Aldrich, Taufkirchen, Germany) for 60 min at 37° C. The plates are subsequently washed twice with HBSS buffer, and HBSS buffer which additionally contains 0.1% BSA (bovine serum albumin; Sigma-Aldrich, Taufkirchen, Germany), 5.6 mM glucose and 0.05% gelatine (Merck KGaA, Darmstadt, Germany) is added. After a further incubation of 20 minutes at RT, the plates are inserted into the FLIPR for Ca^2+ measurement. Alternatively they are washed with buffer A (15 mM HEPES, 80 mM NaCl, 5 mM KCl, 1.2 mM CaCl2, 0.7 mM MgSO4, 2 g/l glucose, 2.5 mM probenecid) and loaded with buffer A with added 2.5 μM Fluo-4 and 0.025% Pluronic F127 (Sigma-Aldrich, Taufkirchen, Germany). The cells are then washed twice with buffer A and incubated for 30 minutes with buffer A, which additionally contains 0.05% BSA and 0.05% gelatine, at RT and then used for Ca^2+ measurement in the FLIPR. The Ca^2+-dependent fluorescence is measured here before and after addition of substances (λex=488 nm, λem=540 nm). The quantification is performed by measuring the highest fluorescence intensity (FC, fluorescence counts) over time.
The FLIPR protocol comprises two additions of substance. Test substances (10 μM) are first pipetted onto the cells and the Ca^2+ inflow is compared with the control (hB1R: Lys-Des-Arg^9 bradykinin >=50 nM; rB1R: Des-Arg^9 bradykinin 10 μM). The value in % activation based on the Ca^2+ signal after addition of Lys-Des-Arg^9 bradykinin (>=50 nM) or Des-Arg^9 bradykinin (10 μM) is obtained therefrom. After incubation for 10-20 minutes, Lys-Des-Arg^9 bradykinin (hB1R) or Des-Arg^9 bradykinin (rB1R) is applied in the EC80 concentration and the inflow of Ca^2+ is likewise determined.
Antagonists lead to a suppression of the Ca^2+ inflow. The % inhibition in comparison with the maximum achievable inhibition is calculated. […]
In the case of `CN(C)c1ccc(C2CCCN2C(=O)CC2c3cccn3CCN2S(=O)(=O)c2ccc(C(F)(F)F)cc2Cl)cc1` (stereo not drawn) [Example 270, 2-[2-[[2-Chloro-4-(trifluoromethyl)-phenyl]sulfonyl]-1,2,3,4-tetrahydro-pyrrolo[1,2-a]pyrazin-1-yl]-1-[2-(4-dimethylaminophenyl)-pyrrolidin-1-yl]-ethanone], the inhibition at 10 µM stood at 3.1%. For `Cc1cccc(Cl)c1S(=O)(=O)N1CCn2cccc2C1CC(=O)N1CCN(Cc2ccc(Cl)cc2)CC1` (stereo not drawn) [Example 249, 2-[2-[(2-Chloro-6-methyl-phenyl)sulfonyl]-1,2,3,4-tetrahydro-pyrrolo[1,2-a]pyrazin-1-yl]-1-[4-[(4-chlorophenyl)-methyl]-piperazin-1-yl]-ethanone] the value was -12.6%; for `Cc1cccc(Cl)c1S(=O)(=O)N1CCn2cccc2C1CC(=O)N1CCN(c2ccccc2F)CC1` (stereo not drawn) [Example 158, 2-[2-[(2-Chloro-6-methyl-phenyl)sulfonyl]-1,2,3,4-tetrahydro-pyrrolo[1,2-a]pyrazin-1-yl]-1-[4-(2-fluorophenyl)-piperazin-1-yl]-ethanone], 32%. The same measure for `COc1cc(C)c(S(=O)(=O)N2CCn3cccc3C2CC(=O)N2CCCCC2Cc2ccccn2)c(C)c1` (stereo not drawn) [Example 244, 2-[2-[(4-Methoxy-2,6-dimethyl-phenyl)sulfonyl]-1,2,3,4-tetrahydro-pyrrolo[1,2-a]pyrazin-1-yl]-1-[2-(pyridin-2-yl-methyl)-piperidin-1-yl]-ethanone]: -37.6%.

In the case of `O=C(CC1c2cccn2CCN1S(=O)(=O)c1ccccc1)N1CCN(c2ccc(C(F)(F)F)cn2)CC1` (stereo not drawn) [Example 183, 2-[2-(Benzenesulfonyl)-1,2,3,4-tetrahydro-pyrrolo[1,2-a]pyrazin-1-yl]-1-[4-[5-(trifluoromethyl)-pyridin-2-yl]-piperazin-1-yl]-ethanone], the inhibition at 10 µM amounted to 56.1%.

As to `COc1cc(C)c(S(=O)(=O)N2CCn3cccc3C2CC(=O)N2CCN(CCO)CC2)c(C)c1` (stereo not drawn) [Example 258, 1-[4-(2-Hydroxy-ethyl)-piperazin-1-yl]-2-[2-[(4-methoxy-2,6-dimethyl-phenyl)sulfonyl]-1,2,3,4-tetrahydro-pyrrolo[1,2-a]pyrazin-1-yl]-ethanone], the inhibition at 10 µM was determined as 9.05%. Take `CN1CCN(CC(NC(=O)CC2c3cccn3CCN2S(=O)(=O)c2ccccc2)c2ccccc2)CC1` (stereo not drawn) [Example 170, 2-[2-(Benzenesulfonyl)-1,2,3,4-tetrahydro-pyrrolo[1,2-a]pyrazin-1-yl]-N-[2-(4-methyl-piperazin-1-yl)-1-phenyl-ethyl]-acetamide]: the inhibition at 10 µM worked out at 68.4%. For `O=C(CC1c2cccn2CCN1S(=O)(=O)c1ccccc1)N1CCC(N2CCOCC2)CC1` (stereo not drawn) [Example 176, 2-[2-(Benzenesulfonyl)-1,2,3,4-tetrahydro-pyrrolo[1,2-a]pyrazin-1-yl]-1-(4-morpholin-4-yl-piperidin-1-yl)-ethanone] the value was 26.7%; for `Cc1cccc(Cl)c1S(=O)(=O)N1CCn2cccc2C1CC(=O)NCCN1CCCC1` (stereo not drawn) [Example 153, 2-[2-[(2-Chloro-6-methyl-phenyl)sulfonyl]-1,2,3,4-tetrahydro-pyrrolo[1,2-a]pyrazin-1-yl]-N-(2-pyrrolidin-1-yl-ethyl)-acetamide], 15.8%. For `COc1cc(C)c(S(=O)(=O)N2CCn3cccc3C2CC(=O)N2CCCCCC2c2ccc(N(C)C)cc2)c(C)c1` (stereo not drawn) [Example 255, 1-[2-(4-Dimethylaminophenyl)-azepan-1-yl]-2-[2-[(4-methoxy-2,6-dimethyl-phenyl)sulfonyl]-1,2,3,4-tetrahydro-pyrrolo[1,2-a]pyrazin-1-yl]-ethanone] the value was -7.23%; for `COc1cc(C)c(S(=O)(=O)N2CCn3cccc3C2CC(=O)N2CCN(Cc3ccc(Cl)cc3)CC2)c(C)c1` (stereo not drawn) [Example 240, 1-[4-[(4-Chlorophenyl)-methyl]-piperazin-1-yl]-2-[2-[(4-methoxy-2,6-dimethyl-phenyl)sulfonyl]-1,2,3,4-tetrahydro-pyrrolo[1,2-a]pyrazin-1-yl]-ethanone], 55.9%.

As for `Cc1ccc(C)n1CCN1CCN(C(=O)CC2c3cccn3CCN2S(=O)(=O)c2ccccc2)CC1` (stereo not drawn) [Example 178, 2-[2-(Benzenesulfonyl)-1,2,3,4-tetrahydro-pyrrolo[1,2-a]pyrazin-1-yl]-1-[4-[2-(2,5-dimethyl-1H-pyrrol-1-yl)-ethyl]-piperazin-1-yl]-ethanone], the inhibition at 10 µM was 17.2%. As for `O=C(CC1c2cccn2CCN1S(=O)(=O)c1ccccc1)NCC1CCN(Cc2ccccc2)C1` (stereo not drawn) [Example 182, 2-[2-(Benzenesulfonyl)-1,2,3,4-tetrahydro-pyrrolo[1,2-a]pyrazin-1-yl]-N-[(1-benzyl-pyrrolidin-3-yl)-methyl]-acetamide], the inhibition at 10 µM was found to be 37.5%.

With `Cc1cccc(Cl)c1S(=O)(=O)N1CCn2cccc2C1CC(=O)N1CCC(N2CCN(C)CC2)CC1` (stereo not drawn) [Example 161, 2-[2-[(2-Chloro-6-methyl-phenyl)sulfonyl]-1,2,3,4-tetrahydro-pyrrolo[1,2-a]pyrazin-1-yl]-1-[4-(4-methyl-piperazin-1-yl)-piperidin-1-yl]-ethanone], the inhibition at 10 µM turned out to be 10.5%. For `Cc1cccc(Cl)c1S(=O)(=O)N1CCn2cccc2C1CC(=O)N1CCC(N2CCOCC2)CC1` (stereo not drawn) [Example 159, 2-[2-[(2-Chloro-6-methyl-phenyl)sulfonyl]-1,2,3,4-tetrahydro-pyrrolo[1,2-a]pyrazin-1-yl]-1-(4-morpholin-4-yl-piperidin-1-yl)-ethanone] the value was 3.48%. The same measure for `COc1cc(C)c(S(=O)(=O)N2CCn3cccc3C2CC(=O)N2CCN(CCC#N)CC2)c(C)c1` (stereo not drawn) [Example 247, 3-[4-[2-[2-[(4-Methoxy-2,6-dimethyl-phenyl)sulfonyl]-1,2,3,4-tetrahydro-pyrrolo[1,2-a]pyrazin-1-yl]-acetyl]-piperazin-1-yl]-propionitrile]: -27.4%.

Consider `O=C(CC1c2cccn2CCN1S(=O)(=O)c1ccccc1)N1CCN(c2ccccc2F)CC1` (stereo not drawn) [Example 172, 2-[2-(Benzenesulfonyl)-1,2,3,4-tetrahydro-pyrrolo[1,2-a]pyrazin-1-yl]-1-[4-(2-fluorophenyl)-piperazin-1-yl]-ethanone], for which the inhibition at 10 µM was 14.1%. The same measure for `COc1cc(C)c(S(=O)(=O)N2CCn3cccc3C2CC(=O)N2CCN(c3ccc(C(F)(F)F)cn3)CC2)c(C)c1` (stereo not drawn) [Example 152, 2-[2-[(4-Methoxy-2,6-dimethyl-phenyl)sulfonyl]-1,2,3,4-tetrahydro-pyrrolo[1,2-a]pyrazin-1-yl]-1-[4-[5-(trifluoromethyl)-pyridin-2-yl]-piperazin-1-yl]-ethanone]: 50.9%.
